Measurements taken from BindingDB's records for doi:10.1016/j.bmc.2011.05.064 (Glaxosmithkline, 2011).

Biological target: Beta-1 adrenergic receptor (Homo sapiens, UniProt P08588)
Experiment: Agonist activity at human adrenergic beta1 receptor expressed in CHO cells assessed as cAMP accumulation

Chain of Beta-1 adrenergic receptor (P08588 whole entry): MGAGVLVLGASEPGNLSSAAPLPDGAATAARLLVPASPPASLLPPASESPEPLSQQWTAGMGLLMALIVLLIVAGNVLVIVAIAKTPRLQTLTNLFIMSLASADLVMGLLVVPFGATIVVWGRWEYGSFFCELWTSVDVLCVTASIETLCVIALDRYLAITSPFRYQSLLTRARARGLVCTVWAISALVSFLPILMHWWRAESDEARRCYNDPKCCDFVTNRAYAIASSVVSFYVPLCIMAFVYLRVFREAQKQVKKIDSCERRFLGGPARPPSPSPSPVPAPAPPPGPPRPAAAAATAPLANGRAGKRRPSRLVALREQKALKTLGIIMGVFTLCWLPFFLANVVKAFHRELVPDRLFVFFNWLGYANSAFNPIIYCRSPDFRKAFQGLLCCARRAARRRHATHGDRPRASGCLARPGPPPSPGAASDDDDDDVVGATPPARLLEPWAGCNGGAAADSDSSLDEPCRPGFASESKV

EC50: 79 nM
SMILES: O=c1[nH]cc(O)n1-c1ccc(CCCCOCCCCCCNC[C@H](O)c2ccc(O)c(CO)c2)cc1
